The target in this test is T1, rat NPRA (Rattus norvegicus, UniProt P18910).
T1 construct: Full-Length cDNA Cloning and Generation of Cell Lines Overexpressing Natriuretic Peptide Receptors (NPRs); expressed in transfected cells; host or cells: Jump-in T-Rex HEK293 cells, pJTI R4 CMV-TO MCS pA vector, tetracycline induction
T1 sequence (P18910 29-1057): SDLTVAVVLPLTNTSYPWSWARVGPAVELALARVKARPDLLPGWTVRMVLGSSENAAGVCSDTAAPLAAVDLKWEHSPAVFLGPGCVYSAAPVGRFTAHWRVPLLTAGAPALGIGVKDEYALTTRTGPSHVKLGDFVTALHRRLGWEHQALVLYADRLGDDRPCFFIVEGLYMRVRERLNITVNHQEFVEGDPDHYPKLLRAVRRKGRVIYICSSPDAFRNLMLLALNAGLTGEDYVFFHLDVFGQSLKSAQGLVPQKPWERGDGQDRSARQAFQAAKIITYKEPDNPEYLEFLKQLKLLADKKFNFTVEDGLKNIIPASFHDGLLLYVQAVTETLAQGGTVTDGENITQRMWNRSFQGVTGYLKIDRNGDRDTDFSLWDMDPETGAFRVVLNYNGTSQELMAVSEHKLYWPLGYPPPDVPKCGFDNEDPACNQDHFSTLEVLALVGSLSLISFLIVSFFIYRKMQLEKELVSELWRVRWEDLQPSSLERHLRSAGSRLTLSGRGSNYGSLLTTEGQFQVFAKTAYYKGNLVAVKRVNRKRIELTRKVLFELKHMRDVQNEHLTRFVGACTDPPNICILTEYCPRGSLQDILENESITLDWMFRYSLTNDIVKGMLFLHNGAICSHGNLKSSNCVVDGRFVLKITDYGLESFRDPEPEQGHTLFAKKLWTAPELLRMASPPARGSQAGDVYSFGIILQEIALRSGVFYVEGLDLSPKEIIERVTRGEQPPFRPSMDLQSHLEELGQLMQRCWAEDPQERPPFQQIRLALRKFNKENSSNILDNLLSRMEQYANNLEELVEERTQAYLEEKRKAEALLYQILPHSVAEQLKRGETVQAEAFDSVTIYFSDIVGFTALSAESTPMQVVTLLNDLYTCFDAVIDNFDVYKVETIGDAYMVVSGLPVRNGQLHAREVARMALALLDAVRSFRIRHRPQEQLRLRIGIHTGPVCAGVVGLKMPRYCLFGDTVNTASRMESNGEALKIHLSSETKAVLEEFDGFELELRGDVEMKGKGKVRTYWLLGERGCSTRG
The test can be described thus: Rat NPRA cGMP activity assay (HTRF) in HEK293 cells overexpressing NPRA. It counts as cell-based. The method, then: All sequences were verified by full-length sequencing performed by ACGT DNA Sequencing Services (Wheeling, IL). The target cDNA was cloned into pJTI R4 CMV-TO MCS pA vector and then co-transfected with pJT1R4 Int vector into Jump-in™ T-Rex™ HEK293 cells for mammalian inducible expression using Jump-in™ T-Rex™ HEK293 kit and Lipofectamine LTX and Plus Reagent following manufacturer's protocols, as briefly described below.
Jump-in™ T-Rex™ HEK293 cells were plated in a BioCOAT® poly-D-lysine coated 6-well plate (Becton Dickinson, cat no. 354413) at 1 million cells/well in 2 mL culture medium and incubated for 18 h at 37° C. and 5% CO2 to 50-70% confluence. A cDNA mix was made in a 50 mL tube by adding 1.5 μg target cDNA, 1.5 μg pJT1R4 Int vector, 3 μL Plus Reagent, and 300 μL Opti-MEM I sequentially into the tube. A reagent mix was made in a separate 50 mL tube by adding 7.5 μL Lipofectamine LTX into 300 μL Opti-MEM I. The mixtures were incubated for 5 min at room temperature. The cDNA mix was then transferred into the reagent mix, mixed well, and incubated for additional 30 min at room temperature. A 500 μL of cDNA/Lipofectamine complex was then transferred to the wells of the cell plate in which the culture medium was changed to 2 mL of transfection medium containing DMEM with 4.5 g/L D-glucose supplemented with 10% FBS-HI and 20 mM HEPES. Transfected cells were cultured for 48 h in an incubator at 37° C. and 5% CO2. A subclone or pool from each overexpressing cell line was maintained in culture medium with the addition of 2 mg/mL G418 sulfate for the clone selection based on its built-in resistance to G418 sulfate for at least 3 weeks with medium changed every 2-3 days.
NPRs were overexpressed in T-Rex™ HEK293 cells following the induction with 300 ng/mL tetracycline in culture medium for 48 h. Induced cell lines in an exponential growth phase were treated with 0.05% trypsin-EDTA for a few seconds at room temperature, harvested in cell medium containing FBS to neutralize the trypsin, counted, and cryopreserved at the density of 2 million cells/mL in cell preservation solution containing FBS-HI with 5% DMSO. Cryopreserved cells were stored at −80° C. for a few days prior to transferring to a liquid nitrogen tank. Induced cell lines were then used for suspension assays to measure the activity of polypeptides to stimulate cGMP production in cGMP assays or for the preparation of cell membranes to measure the binding activity of polypeptides in competitive radioligand binding assays, as described below.
Test polypeptides were added starting at 10 μM concentration and at 10-fold decreasing concentrations to obtain 8-point concentration-response curves (i.e., 10 μM to 1 pM). The quantity of cGMP generated was detected using HTRF® technology and normalized to maximum amount produced by 100 nM amidated rat ANP and the minimum amount produced by assay buffer. Detailed steps are outlined below.
Stock solutions of test polypeptides (2 mM) dissolved in DMSO were first diluted 100-fold in assay buffer containing HBSS with Ca^2+ and Mg^2+, 5 mM HEPES, 0.5 mM IBMX, and 0.1% BSA or 0.1% casein (pH 7.4). The polypeptides were further serially diluted in 1:10 dilution steps in assay buffer containing 0.1% BSA or 0.1% casein to generate 8-point 2× working stock solutions ranging from 20 μM to […].
A 10 μL cell suspension containing 4000 cells was plated in Costar® half-area white opaque 96-well plates (Corning, cat no. 3693). Then 10 μL of assay buffer (basal activity), 200 nM of amidated rat ANP (maximum activity) or 2× working stock solutions of test polypeptides were transferred into the plate. Final concentration of DMSO in each well was 0.5%. The plate was shaken for 15 sec and then incubated for 40 min at room temperature.
The cGMP generated was measured using cGMP kit following the manufacturer's directions, as described below.

Where [1] appears, read: cGMP Assay (EC50, pM) w/BSA rNPRA, assay buffer with 0.1% BSA.
The mark [2] stands for this setting: cGMP Assay (EC50, pM) w/Casein rNPRA, assay buffer with 0.1% casein.

Our source for the EC50 values is patent US20240174727A1, “LONG-ACTING NATRIURETIC PEPTIDES AND USES THEREOF” (Eli Lilly and Company, priority 2022, published 2024).

Read-outs that look alike come from different tables or passages of the source. Numbered stars: 1 amine (or outer) side, 2 acyl side, 3 side chain; on linkers, the order of the positions; unused ones are H or OH. Bridge positions count the residues as written; N and C are the ends. * marks the point of attachment. C20 diacid = O=C(O)CCCCCCCCCCCCCCCCCCC(=O)*; γGlu = O=C(O)[C@H](CCC(=O)[*:2])N[*:1]; CH2 = C([*:1])[*:2]

With `CC[C@H](C)[C@@H]1NC(=O)[C@H](CCCNC(=N)N)NC(=O)[C@H](CC(=O)O)NC(=O)[C@H]([C@@H](C)CC)NC(=O)[C@H](CCCNC(=N)N)NC(=O)[C@H](CCCCN)NC(=O)CNC(=O)[C@H](Cc2ccccc2)NC(=O)[C@@H](NC(=O)[C@H](CO)NC(=O)[C@H](CO)NC(=O)[C@H](CCCNC(=N)N)NC(=O)[C@H](CCCNC(=N)N)NC(=O)[C@H](Cc2ccncc2)NC(=O)[C@H](CO)NC(=O)COCCOCCNC(=O)COCCOCCNC(=O)COCCOCCNC(=O)COCCOCCNC(=O)COCCOCCNC(=O)COCCOCCNC(=O)COCCOCCNC(=O)COCCOCCNC(=O)CNC(=O)[C@H](CCCCN)NC(=O)[C@H](CCC(=O)O)NC(=O)[C@H](CCCCN)NC(=O)[C@H](CCC(=O)O)NC(=O)[C@H](CCCCN)NC(=O)[C@H](CCC(=O)O)NC(=O)CC[C@H](NC(=O)CCCCCCCCCCCCCCCCCCC(=O)O)C(=O)O)CSCSC[C@@H](C(=O)N2CCC[C@H]2C(=O)N[C@@H](CO)C(=O)N[C@@H](Cc2ccccc2)C(=O)N[C@@H](CCCNC(=N)N)C(=O)N[C@@H](Cc2c[nH]cn2)C(=O)NCC(=O)N[C@@H](CO)C(=O)N2CCC[C@H]2C(=O)N[C@@H](CO)C(=O)N[C@@H](CO)C(=O)NCC(=O)N[C@@H](C)C(=O)N2CCC[C@H]2C(=O)N2CCC[C@H]2C(=O)N2CCC[C@H]2C(=O)N[C@@H](CO)C(N)=O)NC(=O)CNC(=O)[C@H](CC(C)C)NC(=O)CNC(=O)[C@H](CO)NC(=O)[C@H](Cc2ccc(O)cc2)NC(=O)[C@H](Cc2c[nH]cn2)NC(=O)CNC1=O` [Example 107], the EC50 under setting [1] was determined as 149000 pM and the EC50 under setting [2] came out at 3770 pM. For `CC[C@H](C)[C@@H]1NC(=O)[C@H](CCCNC(=N)N)NC(=O)[C@H](CC(=O)O)NC(=O)[C@H]([C@@H](C)CC)NC(=O)[C@H](CCCNC(=N)N)NC(=O)[C@H](CCCCN)NC(=O)CNC(=O)[C@H](Cc2ccccc2)NC(=O)[C@@H](NC(=O)[C@H](CO)NC(=O)[C@H](CO)NC(=O)[C@H](CCCNC(=N)N)NC(=O)[C@H](CCCNC(=N)N)NC(=O)[C@H](Cc2ccncc2)NC(=O)[C@H](CO)NC(=O)CCOCCOCCOCCOCCOCCOCCOCCOCCOCCOCCOCCOCCOCCOCCOCCOCCOCCOCCOCCOCCOCCOCCOCCOCCNC(=O)CNC(=O)[C@H](CCCCN)NC(=O)[C@H](CCC(=O)O)NC(=O)[C@H](CCCCN)NC(=O)[C@H](CCC(=O)O)NC(=O)[C@H](CCCCN)NC(=O)[C@H](CCC(=O)O)NC(=O)CC[C@H](NC(=O)CCCCCCCCCCCCCCCCCCC(=O)O)C(=O)O)CSCSC[C@@H](C(=O)N2CCC[C@H]2C(=O)N[C@@H](CO)C(=O)N[C@@H](Cc2ccccc2)C(=O)N[C@@H](CCCNC(=N)N)C(=O)N[C@@H](Cc2c[nH]cn2)C(=O)NCC(=O)NCC(=O)N[C@@H](CCCCN)C(=O)N[C@@H](CO)C(=O)N[C@@H](CO)C(=O)NCC(=O)N[C@@H](C)C(=O)N2CCC[C@H]2C(=O)N2CCC[C@H]2C(=O)N2CCC[C@H]2C(=O)N[C@@H](CO)C(N)=O)NC(=O)CNC(=O)[C@H](CC(C)C)NC(=O)CNC(=O)[C@H](CO)NC(=O)[C@H](CCC(N)=O)NC(=O)[C@H](Cc2c[nH]cn2)NC(=O)CNC1=O` [Example 109], the EC50 was found to be 276000 pM (assay buffer with 0.1% BSA, read-out: cGMP Assay (EC50, pM) w/BSA rNPRA) and 16800 pM (assay buffer with 0.1% casein, read-out: cGMP Assay (EC50, pM) w/Casein rNPRA). `CC[C@H](C)[C@@H]1NC(=O)[C@H](CCCNC(=N)N)NC(=O)[C@H](CC(=O)O)NC(=O)[C@H]([C@@H](C)CC)NC(=O)[C@H](CCCNC(=N)N)NC(=O)[C@H](CCCCN)NC(=O)CNC(=O)[C@H](Cc2ccccc2)NC(=O)[C@@H](NC(=O)[C@H](CO)NC(=O)[C@H](CO)NC(=O)[C@H](CCCNC(=N)N)NC(=O)[C@H](CCCNC(=N)N)NC(=O)[C@H](Cc2ccncc2)NC(=O)[C@H](CO)NC(=O)CCOCCOCCOCCOCCOCCOCCOCCOCCOCCOCCOCCOCCOCCOCCOCCOCCOCCOCCOCCOCCOCCOCCOCCOCCNC(=O)CNC(=O)[C@H](CCCCN)NC(=O)[C@H](CCC(=O)O)NC(=O)[C@H](CCCCN)NC(=O)[C@H](CCC(=O)O)NC(=O)[C@H](CCCCN)NC(=O)[C@H](CCC(=O)O)NC(=O)CC[C@H](NC(=O)CCCCCCCCCCCCCCCCCCC(=O)O)C(=O)O)CSCSC[C@@H](C(=O)N2CCC[C@H]2C(=O)N[C@@H](CO)C(=O)N[C@@H](Cc2ccccc2)C(=O)N[C@@H](CCCNC(=N)N)C(=O)N[C@@H](Cc2c[nH]cn2)C(=O)NCC(=O)N[C@@H](CO)C(=O)N2CCC[C@H]2C(=O)N[C@@H](CO)C(=O)N[C@@H](CO)C(=O)NCC(=O)N[C@@H](C)C(=O)N2CCC[C@H]2C(=O)N2CCC[C@H]2C(=O)N2CCC[C@H]2C(=O)N[C@@H](CO)C(N)=O)NC(=O)CNC(=O)[C@H](CC(C)C)NC(=O)CNC(=O)[C@H](CO)NC(=O)[C@H](Cc2ccc(O)cc2)NC(=O)[C@H](Cc2c[nH]cn2)NC(=O)CNC1=O` [Example 115] returned an EC50 under setting [1] of 100000 pM. “{C20 diacid-γGlu}-EKEKEKGEKPRSSCFGKRIDRIGHQSGLGCPSFRHGSGSPSSGAPPPSG-NH2 (linker 14-30 via CH2) [Example 131]” gave an EC50 under setting [2] of 2160 pM.
